Test results as given in patent US20240174693A1, “SOMATOSTATIN RECEPTOR SUBTYPE 4 (SSTR4) AGONISTS AND THEIR APPLICATIONS” (Humanwell Pharmaceutical US, priority 2022, published 2024).

Legend:
CYP2D6 = molecular target: T1, CYP2D6 (Homo sapiens, UniProt P10635); assay: CYP inhibition in HLM, CYP2D6; assay type: in vitro ADME; conditions: read-out: CYP inhibition (IC50 um) 2D6
T1 construct: from tissue; host or cells: liver microsomes (HLM)
Protocol: (§1) 0.1 M potassium phosphate buffer (K-buffer), pH 7.4 was preheated. K-buffer was prepared by mixing 9.5 mL Stock A into 40.5 mL Stock B. The total volume was brought to 500 mL with Milli-Q water. The buffer was titrated with KOH or H3PO4 to pH 7.4. Stock A (1 M monobasic potassium phosphate) was prepared by adding 136.5 g of monobasic potassium phosphate into 1 L of Milli-Q water. Stock B (1 M dibasic potassium phosphate) was prepared by adding 174.2 g of dibasic potassium phosphate in 1 L of Milli-Q water.
(§2) Serial dilution for test compound and reference inhibitors (400×) was prepared in a 96-well plate. 8 μL of 10 mM test compounds was transferred to 12 μL of ACN. Inhibitor spiking solution was prepared for CYP1A2, CYP2C9 and CYP2D6 in cocktail by adding 12 μL of 1 mM α-Naphthoflavon, 10 μL of 40 mM Sulfaphenazole, 10 μL of 10 mM Quinidine, and 8 μL of DMSO. Individual inhibitor spiking solution for CYP3A4 and CYP2C19 was prepared by adding 8 μL of DMSO stock to 12 μL of ACN. 1:3 serial dilutions were performed in DMSO:ACN mixture (v/v: 40:60).
(§3) NADPH cofactor was prepared by dissolving 66.7 mg NADPH in 10 mL 0.1 M K-buffer, pH7.4. 4×substrate (2 mL for each isoform) was prepared. HLM was added were required on ice. 0.2 mg/mL HLM solution was prepared using 10 μL of 20 mg/mL to 990 μL of 0.1 M K-buffer on ice. 400 μL of 0.2 mg/mL HLM were added to the assay wells and then 2 μL of 400×test compound set were added into the designated wells on ice. 200 μL of 0.2 mg/mL HLM was added to the assay wells and followed by 1 μL of serially diluted reference inhibtor solution into the designated wells on ice. The following solutions were added in duplicated in a 96-well plate on ice: 30 μL of 2×test compound and reference compound in 0.2 mg/mL HLM solution and 15 μL of 4×substrate solution. The 96-well assay plate and NADPH solution were pre-incubated at 37° C. for 5 minutes. 15 μL of pre-warmed 8 mM NADPH solution was added to into the assay plates to initiate the reaction. The assay plate was incubated at 37° C. 5 mins, 10 mins, and 45 mins. […]

KM mice = assay: Acetic acid induced writhing test; assay type: in vivo; conditions: 30 mg/kg s.c.; for No. of writhing's: 0.6% acetic acid 15 min after dosing, 30-minute period; for Percentage of Inhibition / Significant compared to the model group: writhing
Protocol: Fifteen minutes after administration, a 0.6% acetic acid solution (5 mL/kg) was injected into the abdominal cavity. The mice were then placed in an observation box, and the number of writhing episodes was recorded within a 30-minute period. The assessment of pain intensity was based on the observation of the mice's writhing behavior.

RBC partitioning study = assay type: in vitro ADME; conditions: rat
Protocol: 0.05 M sodium phosphate buffer, pH 7.4 was prepared using the following steps. Stock A, stock B, and stock C solutions were prepared by adding 156 g of monobasic sodium phosphate in 1 L of Milli-Q water (1.0 M), 142 g of dibasic sodium phosphate in 1 L of Milli-Q water (1.0 M), and 58.5 g of sodium chloride in 1 L of Milli-Q water (1.0 M) respectively. 20.25 mL of Stock B and 4.75 mL of Stock A were added to 35 mL of Stock C and the total volume was brought to near 500 mL with Milli-Q water. The resulting buffer solution was titrated with NaOH or H3PO4 to pH 7.4 and the total volume was brought to 500 mL. The 0.05 M sodium phosphate buffer was preheated at 37° C.
Fresh blank plasma preparation and hematocrit determination. A tube containing whole blood was centrifuged at 4000 rpm for 10 minuts. The plasma was harvested was stored. Hematocrit (the volume of red blood cells to the total volume of whole blood) was determined using the formula:
Hematocrit=Vred cells/Vblood=(Vblood−Vplasma)/Vblood
Vblood: the volume of whole blood applied
Vplasma: the volume of plasma measured after centrifugation
Preparation of reference and test compound spiking solutions in plasma. 1.25 mM spiking solution A was prepared by adding add 10 μL of 10 mM reference into 70 μL of plasma (8-fold dilution).
Preparation of reference and test compound in whole blood and plasma. For whole blood samples, 12 μL of spiking solution B (prepared above) was added to 288 μL of whole blood (25-fold dilution). For plasma samples, 6 μL of spiking solution B was added to 144 μL of plasma (25-fold dilution). The assay procedure used is as follows. The assay plate was placed in an incubator at 37° C. for 60 minutess. 300 μL of compound spiking solution in whole blood from above was removed and centrifuged at 4000 rpm for 10 minutes. Subsequently plasma was harvested. 50 μL of plasma sample was removed and 150 μL of acetonitrile (containing IS) was added and vortexed for 5 min. The sample was centrifuged at 6000 rpm for 15 minutes. The supernatant was removed and analyzed by LC/MS.

[1] = Log D octanol / potassium phosphate buffer; assay type: physicochemical; conditions: octanol / potassium phosphate buffer (pH 7.4), 25° C.
Protocol: 10 μL of 10 mM stock solutions were placed into a 96-well plate. 300 μL of octanol into the plate was added to the plate. The plate was sealed and agitated on a plate shaker for 5 minutes. The plate was centrifuged at 2000 rpm for 5 minutes. The seal was removed and 600 μL of potassium phosphate buffer (pH 7.4) was added. The plate was sealed, and the two phases were mixed on the plate shaker vigorously for 1 hour at 25° C. The plate was centrifuged at 2000 rpm for 5 minutes after mixing and the seal was removed. 10 μL of water phase samples from the water phase plate was aspirated and mixed with 10 μL of water (1:2 dilution). 180 μL of 50% Ethanol was added into the water phase sample plate (1:10 dilution) to achieve 1:20 dilution. 50 μL of water phase sample was mixed with 100 μL of 50% Ethanol (containing IS) into the water phase sample plate to achieve 1:60 dilution. 10 μL from the octanol phase (the upper phase) was transfered into a new 96-well plate and 190 μL 50% Ethanol (1:20 dilution) was added. 10 μL of 1:20 diluted octanol samples were transferred into a new 96 deep-well plate and 390 μL 50% Ethanol (1:40 dilution) was added to achieve 1:800 dilution. 50 μL of 1:800 diluted octanol samples were transferred into a new 96-well plate again and 100 μL 50% ethanol with IS was added to achieve 1:2400 dilution. Samples were ready for LC/MS analysis.

CYP2C19 = molecular target: T2, CYP2C19 (Homo sapiens, UniProt P33261); assay: CYP inhibition in HLM, CYP2C19; assay type: in vitro ADME; conditions: read-out: CYP inhibition (IC50 um) 2C19
T2 construct: from tissue; host or cells: liver microsomes (HLM)
Protocol: as §1, §2, §3

T1 sequence (P10635 whole entry): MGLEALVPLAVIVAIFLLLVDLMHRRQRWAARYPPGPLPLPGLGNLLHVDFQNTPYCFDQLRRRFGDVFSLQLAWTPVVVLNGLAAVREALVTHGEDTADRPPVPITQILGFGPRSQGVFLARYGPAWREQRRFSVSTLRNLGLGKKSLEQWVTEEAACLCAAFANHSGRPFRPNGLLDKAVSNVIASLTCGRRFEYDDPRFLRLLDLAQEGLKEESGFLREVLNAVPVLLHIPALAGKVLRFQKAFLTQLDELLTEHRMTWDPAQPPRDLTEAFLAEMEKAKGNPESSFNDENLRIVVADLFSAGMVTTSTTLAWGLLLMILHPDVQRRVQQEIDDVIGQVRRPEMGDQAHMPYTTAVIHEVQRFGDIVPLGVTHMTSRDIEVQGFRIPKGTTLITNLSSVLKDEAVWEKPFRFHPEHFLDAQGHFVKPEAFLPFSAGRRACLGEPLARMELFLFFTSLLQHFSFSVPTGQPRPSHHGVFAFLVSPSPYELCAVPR
T2 sequence (P33261 whole entry): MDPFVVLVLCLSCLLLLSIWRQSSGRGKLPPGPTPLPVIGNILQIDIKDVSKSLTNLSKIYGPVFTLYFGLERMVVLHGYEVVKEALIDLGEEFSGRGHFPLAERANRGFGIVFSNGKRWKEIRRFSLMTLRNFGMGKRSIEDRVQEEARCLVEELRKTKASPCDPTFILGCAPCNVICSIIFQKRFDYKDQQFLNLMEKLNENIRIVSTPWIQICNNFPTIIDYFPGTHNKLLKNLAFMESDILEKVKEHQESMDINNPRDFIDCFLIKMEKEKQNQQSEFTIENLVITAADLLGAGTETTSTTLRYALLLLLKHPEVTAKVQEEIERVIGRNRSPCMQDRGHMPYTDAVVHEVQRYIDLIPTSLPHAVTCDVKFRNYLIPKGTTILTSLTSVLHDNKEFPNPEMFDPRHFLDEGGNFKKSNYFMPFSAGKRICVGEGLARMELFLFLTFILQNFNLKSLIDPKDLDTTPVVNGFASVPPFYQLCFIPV

Row | RBC Partitioning Study KBlood/PL (RBC partitioning study) | Compound | IC50 (CYP2D6) | No. of writhing's (KM mice) | Percentage of Inhibition (KM mice) | Significant compared to the model group (KM mice) | RBC Partitioning Study KRBC/PL (RBC partitioning study) | logD [1] | IC50 (CYP2C19)
1 | 1.05 | CC(C)(NC(=O)[C@H]1[C@@H]2CNC[C@H]1C2)c1nc(C2CC2)c2ccccn12 [Compound 9, (1R,5S,6r)-N-(2-(1-cyclopropylimidazo[1,5-a]pyridin-3-yl)propan-2-yl)-3-azabicyclo[3.1.1]heptane-6-carboxamide] | > 10 µM | 8 | 62.34% | Yes | 1.09 | -0.11 | > 10 µM
2 | – | CC(C)(NC(=O)[C@H]1[C@@H]2CNC[C@H]1C2)c1ncc2c(Cl)cccn12 [Compound 7, (1R,5S,6r)-N-(2-(8-chloroimidazo[1,5-a]pyridin-3-yl)propan-2-yl)-3-azabicyclo[3.1.1]heptane-6-carboxamide] | > 10 µM | 10 | 69.16% | Yes | 1.15 | -0.07 | > 10 µM
3 | – | CC(C)(NC(=O)[C@H]1[C@@H]2CNC[C@H]1C2)c1ncc2c(Br)cccn12 [Compound 8, (1R,5S,6r)-N-(2-(8-bromoimidazo[1,5-a]pyridin-3-yl)propan-2-yl)-3-azabicyclo[3.1.1]heptane-6-carboxamide] | > 10 µM | 3 | 86.26% | Yes | 0.94 | -0.15 | > 10 µM
